# Experimental data as given in US20020006942A1, “Methods of treating liver disorders and disorders associated with liver function” (priority 2000, published 2002).
# Columns and labels:
# [1] = tested on: cytokine mRNAs (TNFα, TGF-β1, IL1β) in THP-1 cells; assay: Cytokine mRNA expression by THP-1 cells (RNase protection assay); assay type: cell-based, human; conditions: 100 μM, 48 h
# Source text: Hepatic cytokine mRNAs were quantitated using RNase protection assays, as follows. In vitro transcribed [α-^32P]-UTP labeled -antisense cytokine probes were generated using cytokine multi-probe template kits: Mouse mCK-2 (catalog # 45002P) and Mouse mCK-3 (catalog #45003P) (PharMingen International) and a MAXIscript in vitro transcription kit (catalog #1314) using T7 RNA polymerase per manufacturer instructions. The radiolabeled probes were eluted through G25 Sephadex columns (Boehringer Mannheim) to remove unincorporated nucleotides. RNase protection assays were performed with HybSpeed RPA kits (catalog #1412) (Ambion Inc.) according to the manufacturers specifications. For each reaction, 20 fig of total RNA was hybridized to approximately 50,000 cpm of the antisense cytokine probes and digested with a mixture of RNase A and RNase T1. The protected RNA fragments were separated via a 5% denaturing acrylamide gel. PhosporImager (Molecular Dynamics) analysis was used to visualize the protected RNA fragments. […] Cells were harvested and polyA mRNA extracted, as described above. The content of human cytokines mRNAs were quantited by RNase protection assays, as described above except human template kits were used (Human hCK-2-catalog # 45032P and Human hCK-3-catalog # 45033P) (PharMingen International).
# [2] = tested on: CYP7A1 mRNA expression by rat hepatoma L35 cells; assay: Direct treatment of L35 cells, CYP7A1 mRNA relative to β-actin; assay type: cell-based
# CYP7A1 = conditions: bile acid infused; Heuman et al., 1989; cited from earlier work
# hepatic CYP7A1 mRNA = assay: Hepatic CYP7A1 mRNA relative to GAPDH in C57BL/6 mice on chow or bile acid-containing atherogenic diet; assay type: in vivo, mouse; conditions: chow-fed mice, 1 mg/ml daily by oral gavage, p=ns
# Source text: Female C3H/HeJ and [MUT] mice 10-12 weeks old (Jackson Laboratory, Bar Harbor, Me.) were housed in a room with a normal light cycle (lights on from 0600 to 1800) fed water ad libitum with either normal Purina breeder chow or ground Purina breeder chow supplemented with 20% olive oil, 2% cholesterol and 0.5% taurocholic acid (bile acid-contaning atherogenic diet) and water ad libitum. Mice were maintained on this diet for 3 weeks. After 3 weeks, mice were sacrificed at 0900. […] Mice were sacrificed at 0900 and blood was obtained for subsequent analysis. Livers were extracted for RNA, and polyA RNA was isolated, as described (Dueland, et al., 1993, J. Lipid.Res. 34:923-931; Dueland, et al., 1997, J. Lipid Res. 38:1445-1453). Poly A MRNA was blotted onto nitrocellulose and probed with ^32P-labeled cDNA encoding rat CYP7A1 and GAPDH (Duelandet al., 1993, J. Lipid Res. 34:923-931; Dueland, et al., 1997, J. Lipid Res. 38:1445-1453). The relative abundance of CYP7A1 mRNA to GAPDH mRNA was determined using Phosphorimager quantitation (Molecular Biosystems).
molecule,measurement,setting,value
"C[C@H](CCC(=O)O)[C@H]1CC[C@H]2[C@@H]3[C@H](O)C[C@@H]4C[C@H](O)CC[C@]4(C)[C@H]3CC[C@]12C [CDCA, chenodeoxycholic acid]","induction of TNFα, TGF-β1 and IL1β mRNAs by THP-1 cells",[1],> 10 fold
same,CYP7A1 expression by L35 cells,"[2]; CDCA 100 μM added directly to L35 cells, 24 hours",unaffected
same,ability to repress CYP7A1,CYP7A1,potent repressor
"C[C@H](CCC(=O)O)[C@H]1CC[C@H]2[C@@H]3[C@@H](O)C[C@@H]4C[C@H](O)CC[C@]4(C)[C@H]3CC[C@]12C [UDCA, ursodeoxycholic acid]",ability to repress CYP7A1,CYP7A1,does not repress
CN(CCOc1ccc(CC2SC(=O)NC2=O)cc1)c1ccccn1 (stereo not drawn) [rosiglitazone],decrease in the expression of CYP7A1,hepatic CYP7A1 mRNA,30%
TNFa,expression of CYP7A1 by L35 cells,"[2]; human TNFa alone, 24 h",repressed
